Source: ChEMBL document CHEMBL5550200, “Back-Pocket Optimization of 2-Aminopyrimidine-Based Macrocycles Leads to Potent EPHA2/GAK Kinase Inhibitors” (J Med Chem, 2024)

Key:
[1] = target: T1, Cyclin-G-associated kinase (Homo sapiens) (UniProt O14976)
T1 sequence (whole entry): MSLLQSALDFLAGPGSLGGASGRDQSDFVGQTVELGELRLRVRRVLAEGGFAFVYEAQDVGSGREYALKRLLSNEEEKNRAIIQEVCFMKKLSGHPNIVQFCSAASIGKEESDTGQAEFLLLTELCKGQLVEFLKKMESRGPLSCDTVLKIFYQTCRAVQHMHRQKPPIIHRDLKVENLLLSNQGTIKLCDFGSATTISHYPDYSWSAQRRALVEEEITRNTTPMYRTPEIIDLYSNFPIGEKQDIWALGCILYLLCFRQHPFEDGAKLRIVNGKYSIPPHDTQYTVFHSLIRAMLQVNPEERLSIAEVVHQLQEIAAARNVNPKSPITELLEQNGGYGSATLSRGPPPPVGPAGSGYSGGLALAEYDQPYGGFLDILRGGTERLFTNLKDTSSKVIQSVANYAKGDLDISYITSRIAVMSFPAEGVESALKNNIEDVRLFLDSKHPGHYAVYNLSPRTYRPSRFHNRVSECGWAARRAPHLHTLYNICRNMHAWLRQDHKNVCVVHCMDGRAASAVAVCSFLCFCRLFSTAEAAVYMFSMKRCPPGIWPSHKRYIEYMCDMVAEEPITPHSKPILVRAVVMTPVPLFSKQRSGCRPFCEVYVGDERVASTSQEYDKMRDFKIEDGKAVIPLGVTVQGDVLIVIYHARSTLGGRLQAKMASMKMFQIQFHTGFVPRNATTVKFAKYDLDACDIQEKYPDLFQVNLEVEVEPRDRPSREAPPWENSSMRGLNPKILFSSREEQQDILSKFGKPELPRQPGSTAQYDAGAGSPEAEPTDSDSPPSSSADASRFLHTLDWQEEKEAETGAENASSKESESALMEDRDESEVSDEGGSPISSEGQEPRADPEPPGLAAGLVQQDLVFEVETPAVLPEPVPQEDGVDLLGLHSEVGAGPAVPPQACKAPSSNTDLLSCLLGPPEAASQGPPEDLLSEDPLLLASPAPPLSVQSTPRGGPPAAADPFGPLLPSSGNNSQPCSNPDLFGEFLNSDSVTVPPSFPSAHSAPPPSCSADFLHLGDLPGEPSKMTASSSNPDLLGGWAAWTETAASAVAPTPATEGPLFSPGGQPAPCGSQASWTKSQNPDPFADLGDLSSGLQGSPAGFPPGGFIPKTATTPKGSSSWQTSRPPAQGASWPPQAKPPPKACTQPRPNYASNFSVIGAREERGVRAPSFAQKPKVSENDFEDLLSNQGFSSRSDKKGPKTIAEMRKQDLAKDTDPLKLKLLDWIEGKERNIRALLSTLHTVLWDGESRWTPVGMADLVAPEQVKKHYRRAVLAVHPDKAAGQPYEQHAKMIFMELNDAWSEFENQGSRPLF
Description: Induction of stabilization of recombinant GAK (unknown origin) assessed as change in melting temperature by differential scanning fluorimetry assay

Huh-7 = experiment: Cytotoxicity against human Huh-7 cells assessed as reduction in cell viability by alamar blue reagent based analysis; assay type: functional

deltaTm [1] [K] | SMILES | CC50 (Huh-7) [µM]
7.3 | COc1cc(-c2cnc3nc2NCCCNS(=O)(=O)c2cccc(c2)N3)c(F)cc1F | > 10
6.8 | COc1c(F)ccc(-c2cnc3nc2NCCCNS(=O)(=O)c2cccc(c2)N3)c1F | 2.9
3.6 | O=S1(=O)NCCCNc2nc(ncc2-c2ccc(Cl)c(Cl)c2)Nc2cccc1c2 | > 10
8 | COc1cc(-c2cnc3nc2NCCCNS(=O)(=O)c2cc(ccc2O)N3)ccc1F | > 10
